The test system of one series is HepG2 cells. Briefly: Growth inhibition of HepG2 cells, six days of incubation, sulforhodamin-B-method. In kind it is cell-based, human. To be noted: six days of substance incubation, read-out: IC50-value (concentration in which the cell growth was inhibited by 50%). How it is done:
HepG2 cells plated at a density of 20,000 cells/ml in 12-well plastic dishes. Cultivation occured in Richters IMEM-ZO nutrient medium with 5% fetal calf serum (FCS) in a tissue culture incubator with a gas mixture of 5% CO2 and 95% air at a temperature of 37° C. One day after plating, the culture medium was aspirated from the cells and replaced by fresh medium which contained the respective concentrations of the test substances. For the individual concentrations and the controls without test substances, three-fold batches were done for each. Three days after the beginning of treatment, the medium was again renewed with the test compounds. After six days of substance incubation, the test was ended and the protein amount in the individual wells was determined with the sulforhodamin-B-method (according to P. Skehan et al.: New Colorimetric Cytotoxity Assay for Anticancer-Drug Screening. J. Natl. Cancer Inst. 82: 1107-1112, 1990). The IC50-values (defined as that concentration in which the cell growth was inhibited by 50%) was taken from the dose-response curves and given as a comparative measurement for the activity of the test compounds.

Series [1] concerns lymphocytes from the spleen of a Swiss mouse. As to the kind of experiment: Immunosuppressing activity: vitality of freshly isolated spleen lymphocytes, flow-through cytometer. In kind it is cell-based. The note with it: 2 days incubation, read-out: IC50 (percentage amount of vital cells). The text has this: Many anti-tumor agents have not only a cytotoxic effect on tumor cells, but also on the blood cell system. This leads to a weakening of the immune defence, which can, in turn, be specifically employed to suppress the rejection reaction after an organ transplantation for example. Therefore, a use of the main compounds, optionally in combination with other compounds effective for these indications is suitable in diseases such as psoriasis or autoimmune diseases. In order to test the possibility for a therapeutic use in illnesses of this type, the substance activity was tested on freshly isolated lymphocytes as follows:
The spleen of a Swiss mouse served as a lymphocyte source. The lymphocyte population was isolated from the spleen cell suspension over a ficoll gradient and taken up in IMEM-ZO culture medium with 0,1% dextran 70,000 and 2% fetal calf serum. The cells were plated at a density of ca. 500,000 cells/well/ml in a 12-well plate, 1 ml doubly concentrated test substance solution was pipetted per well and this was subsequently incubated in a tissue culture incubator at 37° C. and 5% CO2. After 2 days, a 1 ml-aliquot with 5 μl of the fluorescent dye solutions propidium iodide (8 mg/ml) and 3,3′-dihexyloxacarbocyanin iodide (40 μg/ml) each was added per well, and incubated for 3 minutes at room temperature. Subsequently, 10,000 cells per each sample were measured on a flow-through cytometer and the percentage amount of vital cells in the population was determined. By means of the dose-response curves, IC50-values were calculated which were also employed in the following Tables for the characterization of the individual substances: […]

Here are results for seven molecules from patent US20040009967A1, “Pyridyl alkene- and pyridyl alkine- acid amides as cytostatics and immuno-suppressives” (Klinge Pharma GmbH, priority 1996, published 2004).

Read-outs that look alike come from different tables or passages of the source.

Take `O=C(C=Cc1cccnc1)NCCCCC1CCN(C(=O)c2cccc3c2-c2ccccc2C3=O)CC1` [Substance 178, N-{4-[1-(9-oxo-9H-fluoren-4-yl-carbonyl)-piperidin-4-yl]-butyl}-3-(pyridin-3-yl)-acrylamide]: the IC50 with HepG2 cells (Homo sapiens, 144 h) amounted to 0.7 nM.
With `O=C(C=Cc1cccnc1)NCCCCC1CCN(C(=O)Nc2cccc3ccccc23)CC1` [Substance 195, N-{4-[1-(1-naphthylaminocarbonyl)-piperidin-4-yl]-butyl}-3-(pyridin-3-yl)-acrylamide], the melting point – broadly, the temperature of the solid-liquid transition – was in the range of 198 to 200 °C. The IC50 in series [1] (Lymphocyte, 48 h) came to 2 nM.
Regarding `O=C(C=Cc1cccnc1)NCCCCC1CCN(C(=O)c2ccccc2)CC1` [Substance 159, N[4-(1-benzoylpiperidin-4-yl)-butyl]-3-(pyridin-3-yl)-acrylamide], the IC50 stood at 0.5 nM in the series on HepG2 cells and 3 nM in series [1].
`O=C(C=Cc1cccnc1)NCCCCC1CCN(C(=O)C(c2ccccc2)c2ccccc2)CC1` [Substance 150, N-[4-(1-diphenylacetyl-piperidin-4-yl)-butyl]-3-(pyridin-3-yl)-acrylamide] returned a melting point of 161 °C. Moreover, the IC50 in series [1] (Lymphocyte, 48 h) was 0.2 nM.
`O=C(C=Cc1cccnc1)NCCCCC1CCN(C(=O)N(c2ccccc2)c2ccccc2)CC1` [Substance 199, N-{4-[1-(diphenylaminocarbonyl)-piperidin-4-yl]-butyl}-3-(pyridin-3-yl)-acrylamide]: the IC50 in the series with HepG2 cells (Homo sapiens, 144 h) stood at 1 nM; in series [1] (Lymphocyte, 48 h), 0.04 nM.
Consider `O=C(C=Cc1cccnc1)NCCCCC1CCN(C2c3ccccc3CSc3ccccc32)CC1` (stereo not drawn) [Substance 136, N-{4-[1-(6,11-dihydro-dibenzo[b,e]thiepin-11-yl)-piperidin-4-yl]-butyl}-3-(pyridin-3-yl)-acrylamide], for which the melting point was in the range of 89 to 91 °C. Besides, in the series with HepG2 cells (Homo sapiens, 144 h), the IC50 is 2 nM.
Molecule `O=C(C=Cc1cccnc1)NCCCCC1CCN(S(=O)(=O)c2ccc3ccccc3c2)CC1` [Substance 219, N-{4-[1-(2-naphthyl-sulfonyl)-piperidin-4-yl]-butyl}-3-(pyridin-3-yl)-acrylamide] came in with a melting point of 85 to 87 °C.
